Patent publication US4783452A, “Platinum coordination compounds” (Johnson Matthey Public Limited Company, priority 1985, dated 1988)

Tested on: ADJ/PC6 tumour
Test: anti-tumour activity against ADJ/PC6 tumour implanted into female Balb C- mice
Type: in vivo
Set-up: LD50: unit not given here
Details: for TI / ED90: ADJ/PC6 tumour; for ED90: in mg/kg (unit assumed)
Description: Compounds were administered both parenterally (IP) and orally (PO).

Molecule | LD50 (IP (parenteral)) | TI (IP (parenteral)) | ED90 (IP (parenteral)) | LD50 (PO (oral)) | TI (PO (oral)) | ED90 (PO (oral))
CC1(C)OC(CN)C(CN)O1.[Cl][Pt][Cl] [cis-dichloro[(4S,5S)-4,5-bis-(aminomethyl)-2,2-dimethyl-1,3-] [cis-dichloro[(4S,5S)-4,5-bis-(aminomethyl)-2,2-dimethyl-1,3-dioxolane]platinum (II)] | 35 | 23.9 | 1.46 | 1130 | 43.5 | 26
CC1(C)OC(CN)C(CN)O1.[Cl][Pt][Cl] [cis-dichloro[(4R,5R)-4,5-bis-(aminomethyl)-2,2-dimethyl-1,3-] [cis-dichloro[(4R,5R)-4,5-bis-(aminomethyl)-2,2-dimethyl-1,3-dioxolane]platinum (II)] | 35 | 22.6 | 1.6 | 1100 | 122 | 9
[Cl][Pt]1([Cl])[NH]CC2OC(c3ccccc3)OC2C[NH]1 [cis-dichloro[(4S,5S)-4,5-bis-(aminomethyl)-2-phenyl-1,3-dioxolane]platinum (II)] | > 800 | > 26 | 30 | > 1600 | > 1 | ~ 1600
CC1(C)OC(CN)C(CN)O1.[Br][Pt][Br] (racemic) [cis-dibromo[4,5-bis(aminomethyl)-2,2-dimethyl-1,3-dioxolane]platinum (II)] | 21 | 5.2 | 4 | – | – | –
cis-dichloro[2,3-dihydroxy-1,2-diamino butane)-platinum (II) [reference compound] | > 400 | > 1 | 380 | > 800 | – | –
